Active and inactive are the calls of the source. No cut-off for these calls is given here.
How the values were obtained:
SW-620 = assay: Reversal of paclitaxel resistance in human SW620 cells assessed as reversal fold by measuring ratio of paclitaxel IC50 to paclitaxel IC50 in presence of test compound at 4 uM incubated for 72 hrs by MTT assay; type: functional
SW620/AD300 = assay: Reversal of paclitaxel resistance in human SW620/AD300 cells assessed as reversal fold by measuring ratio of paclitaxel IC50 to paclitaxel IC50 in presence of test compound at 2 uM incubated for 72 hrs by MTT assay; type: functional
KB-C2 [1] = assay: Reversal of paclitaxel resistance in human KB-C2 cells assessed as reversal fold by measuring ratio of paclitaxel IC50 to paclitaxel IC50 in presence of test compound at 2 uM incubated for 72 hrs by MTT assay; type: functional
KB-C2 [2] = assay: Cytotoxicity against human KB-C2 cells assessed as survival rate at 5 uM measured after 72 hrs by MTT assay relative to control; type: functional; conditions: read-out: Survival
KB 3-1 = assay: Cytotoxicity against human KB 3-1 cells assessed as survival rate at 2 uM measured after 72 hrs by MTT assay relative to control; type: functional; conditions: read-out: Survival
HEK293 [3] = assay: Cytotoxicity against HEK293 cells transfected with pcDNA3.1 assessed as survival rate at 2 uM measured after 72 hrs by MTT assay relative to control; type: functional; conditions: Homo sapiens, read-out: Survival
[4] = Reversal of paclitaxel resistance in HEK293 cells harbouring ABCB1 assessed as reversal fold by measuring ratio of paclitaxel IC50 to paclitaxel IC50 in presence of test compound at 2 uM incubated for 72 hrs by MTT assay; type: functional, Homo sapiens
HEK293 [5] = assay: Cytotoxicity against HEK293 cells harbouring ABCB1 assessed as survival rate at 2 uM measured after 72 hrs by MTT assay relative to control; type: functional; conditions: Homo sapiens, read-out: Survival
[6] = Cmax in 12 hrs fasted Sprague-Dawley rat at 1 mg/kg, iv measured upto 720 mins by HPLC-MS/MS analysis; type: ADME, organism-based; conditions: in vivo
[7] = AUC (0 to infinity) in 12 hrs fasted Sprague-Dawley rat at 1 mg/kg, iv measured upto 720 mins by HPLC-MS/MS analysis; type: ADME, organism-based; conditions: in vivo
[8] = Tmax in 12 hrs fasted Sprague-Dawley rat at 10 mg/kg, po measured upto 720 mins by HPLC-MS/MS analysis; type: ADME, organism-based; conditions: in vivo
[9] = AUC (0 to infinity) in 12 hrs fasted Sprague-Dawley rat at 10 mg/kg, po measured upto 720 mins by HPLC-MS/MS analysis; type: ADME, organism-based; conditions: in vivo
[10] = target: T1, ATP-dependent translocase ABCB1 (Homo sapiens, UniProt P08183); assay: Induction of thermal stabilization of ABCB1 in human SW620/AD300 cells at 200 uM measured after 30 mins by thermal shift assay; type: cell-based; conditions: sw620/ad300, 0.5 h
[11] = Toxicity in Sprague-Dawley rat assessed as fatality at 250 to 1000 mg/kg, po measured for 14 days administered as single dose; type: organism-based; conditions: in vivo, 336 h, dose 250-1000 mg/kg, time 14 day
[12] = Toxicity in Sprague-Dawley rat assessed as maximum tolerated dose measured for 14 days administered as single oral dose; conditions: in vivo, time 14 day
[13] = Toxicity in BALB/c nude mouse assessed as mortality at 100 mg/kg/day, IG measured after 21 days in presence of paclitaxel; type: organism-based; conditions: in vivo, po, 504 h, time 21 day
CD8-positive T cell = assay: Activation of immune response in human CD8-positive T cell assessed as increase in perforin level at 4 uM by ELISA method; type: functional, cell-based
CT26/TAXOL = assay: Antitumor T-cell immune response in […] cells xenografted in BALB/c nude mouse model at 100 mg/kg/day, IG in presence of anti-PD-1/paclitaxel measured after 14 days; type: functional, organism-based; conditions: time 14.0 day
[14] = Toxicity in BALB/c nude mouse xenografted with […] CT26/TAXOL cells assessed as mortality at 100 mg/kg/day, IG measured upto 14 days in presence of paclitaxel; type: organism-based; conditions: in vivo, po, 336 h, time < 14 day
[15] = Toxicity in BALB/c nude mouse xenografted with […] CT26/TAXOL cells assessed as effect on heart at 100 mg/kg/day, IG measured after 14 days by H and E staining based analysis; type: organism-based; conditions: in vivo, po, 336 h, time 14 day
[16] = Toxicity in BALB/c nude mouse xenografted with […] CT26/TAXOL cells assessed as effect on liver at 100 mg/kg/day, IG measured after 14 days by H and E staining based analysis; type: organism-based; conditions: in vivo, po, 336 h, time 14 day
[17] = Toxicity in BALB/c nude mouse xenografted with […] CT26/TAXOL cells assessed as effect on lung at 100 mg/kg/day, IG measured after 14 days by H and E staining based analysis; type: organism-based; conditions: in vivo, po, 336 h, time 14 day
[18] = Toxicity in BALB/c nude mouse xenografted with […] CT26/TAXOL cells assessed as effect on kidney at 100 mg/kg/day, IG measured after 14 days by H and E staining based analysis; type: organism-based; conditions: in vivo, po, 336 h, time 14 day
[19] = Toxicity in BALB/c nude mouse xenografted with […] CT26/TAXOL cells assessed as effect on brain at 100 mg/kg/day, IG measured after 14 days by H and E staining based analysis; type: organism-based; conditions: in vivo, po, 336 h, time 14 day
[20] = Toxicity in BALB/c nude mouse xenografted with […] CT26/TAXOL cells assessed as effect on heart at 100 mg/kg/day, IG in presence of paclitaxel measured after 14 days by H and E staining based analysis; type: organism-based; conditions: in vivo, po, 336 h, time 14 day
[21] = Toxicity in BALB/c nude mouse xenografted with […] CT26/TAXOL cells assessed as effect on spleen at 100 mg/kg/day, IG in presence of paclitaxel measured after 14 days by H and E staining based analysis; type: organism-based; conditions: in vivo, po, 336 h, time 14 day
[22] = Toxicity in BALB/c nude mouse xenografted with […] CT26/TAXOL cells assessed as effect on kidney at 100 mg/kg/day, IG in presence of paclitaxel measured after 14 days by H and E staining based analysis; type: organism-based; conditions: in vivo, po, 336 h, time 14 day
[23] = Toxicity in BALB/c nude mouse xenografted with […] CT26/TAXOL cells assessed as effect on liver at 100 mg/kg/day, IG in presence of paclitaxel/anti-PD-1 measured after 14 days by H and E staining based analysis; type: organism-based; conditions: in vivo, po, 336 h, time 14 day
[24] = Toxicity in BALB/c nude mouse xenografted with […] CT26/TAXOL cells assessed as effect on spleen at 100 mg/kg/day, IG in presence of paclitaxel/anti-PD-1 measured after 14 days by H and E staining based analysis; type: organism-based; conditions: in vivo, po, 336 h, time 14 day
[25] = Toxicity in BALB/c nude mouse xenografted with […] CT26/TAXOL cells assessed as effect on lung at 100 mg/kg/day, IG in presence of paclitaxel/anti-PD-1 measured after 14 days by H and E staining based analysis; type: organism-based; conditions: in vivo, po, 336 h, time 14 day
[26] = target: T1, ATP-dependent translocase ABCB1; assay: Inhibition of ABCB1 in human SW620/AD300 cells assessed as decrease in [3H]-PTX efflux at 4 uM measured after 120 mins (Rvb <95%); type: cell-based; conditions: 2 h
Cytochrome P450 3A4 = Cytochrome P450 3A4 (Homo sapiens, UniProt P08684); assay: Activation of recombinant CYP3A4 in human liver microsomes at 4 uM measured after 30 mins in presence of NADPH generating system by fluorescence based analysis; type: ADME, Microsome; conditions: 0.5 h
Cytochrome P450 3A4, sequence (P08684 whole entry): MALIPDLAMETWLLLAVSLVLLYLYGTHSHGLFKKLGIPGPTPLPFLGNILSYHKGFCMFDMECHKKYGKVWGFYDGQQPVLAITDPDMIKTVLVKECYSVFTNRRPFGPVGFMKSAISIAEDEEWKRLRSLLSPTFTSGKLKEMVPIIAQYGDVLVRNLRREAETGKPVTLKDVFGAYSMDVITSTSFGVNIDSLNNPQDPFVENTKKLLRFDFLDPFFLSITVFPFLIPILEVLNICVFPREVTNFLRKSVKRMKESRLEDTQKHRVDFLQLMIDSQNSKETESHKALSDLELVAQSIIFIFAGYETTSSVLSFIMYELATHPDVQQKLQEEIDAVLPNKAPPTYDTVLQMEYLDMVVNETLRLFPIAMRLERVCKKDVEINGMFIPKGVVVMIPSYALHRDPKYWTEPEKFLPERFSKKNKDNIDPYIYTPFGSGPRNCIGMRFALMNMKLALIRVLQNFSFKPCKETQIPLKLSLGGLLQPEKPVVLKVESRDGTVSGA

T1 sequence (P08183 whole entry): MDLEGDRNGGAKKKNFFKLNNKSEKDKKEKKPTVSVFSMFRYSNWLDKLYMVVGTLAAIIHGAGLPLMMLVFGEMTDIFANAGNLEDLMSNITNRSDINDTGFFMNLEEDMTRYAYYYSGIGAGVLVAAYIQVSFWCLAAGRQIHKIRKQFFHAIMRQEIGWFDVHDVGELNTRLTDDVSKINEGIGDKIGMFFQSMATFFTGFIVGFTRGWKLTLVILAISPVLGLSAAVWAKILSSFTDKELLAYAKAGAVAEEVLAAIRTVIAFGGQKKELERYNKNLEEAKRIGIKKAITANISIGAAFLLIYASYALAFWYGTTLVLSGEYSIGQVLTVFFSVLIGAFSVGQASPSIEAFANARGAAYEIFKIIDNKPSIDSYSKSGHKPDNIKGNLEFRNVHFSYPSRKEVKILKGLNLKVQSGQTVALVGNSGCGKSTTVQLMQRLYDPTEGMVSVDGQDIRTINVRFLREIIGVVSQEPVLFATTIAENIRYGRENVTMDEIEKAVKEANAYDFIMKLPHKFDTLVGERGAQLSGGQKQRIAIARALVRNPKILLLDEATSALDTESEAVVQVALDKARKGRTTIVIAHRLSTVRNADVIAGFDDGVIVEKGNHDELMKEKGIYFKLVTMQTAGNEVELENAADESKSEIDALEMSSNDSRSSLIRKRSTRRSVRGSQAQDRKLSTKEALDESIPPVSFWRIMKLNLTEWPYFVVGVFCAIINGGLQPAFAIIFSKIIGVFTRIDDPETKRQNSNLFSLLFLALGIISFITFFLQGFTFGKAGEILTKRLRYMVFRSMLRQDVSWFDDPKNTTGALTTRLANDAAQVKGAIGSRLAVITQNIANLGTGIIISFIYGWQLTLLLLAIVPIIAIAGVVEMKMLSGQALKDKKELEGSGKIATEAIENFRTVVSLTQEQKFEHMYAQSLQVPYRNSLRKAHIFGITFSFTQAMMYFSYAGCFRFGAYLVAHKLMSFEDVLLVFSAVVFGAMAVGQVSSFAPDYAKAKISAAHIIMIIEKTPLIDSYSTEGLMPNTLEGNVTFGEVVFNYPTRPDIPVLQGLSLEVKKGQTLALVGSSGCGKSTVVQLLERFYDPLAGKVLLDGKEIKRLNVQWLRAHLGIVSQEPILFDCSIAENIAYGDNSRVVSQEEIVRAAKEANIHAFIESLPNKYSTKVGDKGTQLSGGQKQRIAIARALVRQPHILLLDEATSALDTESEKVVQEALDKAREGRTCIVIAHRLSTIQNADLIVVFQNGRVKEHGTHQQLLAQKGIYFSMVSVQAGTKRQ

Compound: O=c1c2c([nH]c3nc(SCc4nc5ccccc5s4)nn13)CCC2
- Ratio IC50 (SW-620): 1.06
- Ratio IC50 (SW620/AD300): 168.91
- Ratio IC50 (KB-C2 [1]): 106.85
- viability at 5 µM (KB-C2 [2]): 94.4%
- viability at 2 µM (KB 3-1): 99.6%
- viability at 2 µM (HEK293 [3]): 97.8%
- Ratio IC50 [4]: 7.82
- viability at 2 µM (HEK293 [5]): 98.2%
- Cmax [6]: 380 ng/mL
- AUC(0-inf) [7]: 915 ng·h/mL
- Tmax [8]: 6 h
- AUC(0-inf) [9]: 5840 ng·h/mL
- Activity [10]: Active
- Activity [11]: Non-toxic
- MTD at 336 h [12]: 1000 mg/kg
- Activity [13]: Non-toxic
- Activity (CD8-positive T cell): Active
- Activity (CT26/TAXOL): Active
- Activity [14]: Non-toxic
- Activity [15]: Non-toxic
- Activity [16]: Non-toxic
- Activity [17]: Non-toxic
- Activity [18]: Non-toxic
- Activity [19]: Non-toxic
- Activity [20]: Non-toxic
- Activity [21]: Non-toxic
- Activity [22]: Non-toxic
- Activity [23]: Non-toxic
- Activity [24]: Non-toxic
- Activity [25]: Non-toxic
- inhibition at 4 µM [26]: 71%
- Activity (Cytochrome P450 3A4): Active

— ChEMBL document CHEMBL6092192 (J Med Chem, 2024)
